The text below walks through data of ChEMBL document CHEMBL4028815, “Novel phosphonate analogs of sulforaphane: Synthesis, in vitro and in vivo anticancer activity” (Eur J Med Chem, 2017).

One may read the IC50 as the midpoint of a concentration-inhibition curve.

SMILES strings stand for the structures.

Data set [1] has as its system LoVo. The data set is described as follows: Potency index, ratio of sulforaphane IC50 to compound IC50 for human LoVo cells. The class given is functional.
Data set [2] relates to LoVo. The data set is described as follows: Potency index, ratio of benzyl isothiocyanate IC50 to compound IC50 for human LoVo cells. The class given is functional.
Data set [3] relates to LoVo. Nature of the data set: Cytotoxicity against human LoVo cells after 72 hrs by sulforhodamine B assay. The data set is classed as functional, cell-based.
Data set [4] in a line: Cytotoxicity against human LoVo/DX cells after 72 hrs by sulforhodamine B assay. The class given is functional, cell-based. For orientation: Sulforhodamine B stains cellular protein and so reports cell mass.
A short description of data set [5]: Resistance index, ratio of IC50 for human LoVo/DX cells to IC50 for human LoVo cells. The data set is classed as functional.
The test system of data set [6] is 4T1. Nature of the data set: Anti-tumor activity against mouse 4T1 cells implanted in BALB/c mdb mouse assessed as tumor growth inhibition at 100 umol/kg, ip administered five times weekly measured on day 15 post cell innoculum relative to control. The data set is classed as functional. Particulars: 4T1, ip, 360 h, read-out: TGI.
In data set [7] the test system is 4T1. The data set is described as follows: Anti-tumor activity against mouse 4T1 cells implanted in BALB/c mdb mouse assessed as tumor growth inhibition at 100 umol/kg, ip administered five times weekly measured on day 29 post cell innoculum relative to control. The class given is functional. The settings on record: 4T1, ip, 696 h, read-out: TGI.
The subject of data set [8] is Mus musculus. Nature of the data set: Toxicity in BALB/c mdb mouse implanted with mouse 4T1 cells assessed as body weight loss at 100 umol/kg, ip administered five times weekly measured 3 times weekly during compound dosing. The data set is classed as organism-based. The settings on record: in vivo.
Data set [9] concerns Mus musculus. Nature of the data set: Hepatotoxicity in BALB/c mdb mouse implanted with mouse 4T1 cells assessed as liver weight at 100 umol/kg, ip administered five times weekly measured at 29 day post cell innoculum (reference value: 1.2 +/- 0.13 g). The data set is classed as toxicity, organism-based. The settings on record: in vivo, 696 h.
Data set [10] has as its system Mus musculus. The data set is described as follows: Nephrotoxicity in BALB/c mdb mouse implanted with mouse 4T1 cells assessed as kidney weight at 100 umol/kg, ip administered five times weekly measured at 29 day post cell innoculum (reference value: 0.136 +/- 0.006 g). The class given is toxicity, organism-based. The settings on record: in vivo, 696 h.
Data set [11] relates to Mus musculus. Nature of the data set: Toxicity in BALB/c mdb mouse implanted with mouse 4T1 cells assessed as spleen weight at 100 umol/kg, ip administered five times weekly measured at 29 day post cell innoculum (reference value: 0.603 +/- 0.133 g). The class given is organism-based. Particulars: in vivo, 696 h.
Data set [12] concerns Mus musculus. Nature of the data set: Toxicity in BALB/c mdb mouse implanted with mouse 4T1 cells assessed as lung weight at 100 umol/kg, ip administered five times weekly measured at 29 day post cell innoculum (reference value: 0.2 +/- 0.018 g). The settings on record: in vivo, 696 h. The class given is organism-based.
Data set [13] concerns 4T1. The data set is described as follows: Anti-tumor activity against mouse 4T1 cells implanted in BALB/c mdb mouse assessed as lung metastasis at 100 umol/kg, ip administered five times weekly measured at 29 days post cell innoculum (reference value: 56 +/- 25). The class given is functional.
The subject of data set [14] is Mus musculus. Nature of the data set: Toxicity in BALB/c mdb mouse implanted with mouse 4T1 cells assessed as WBC level at 100 umol/kg, ip administered five times weekly measured at 29 day post cell innoculum (reference value: 212.3 +/- 82.8 10^3/uL). Particulars: in vivo, 696 h. The data set is classed as organism-based.
Data set [15] has as its system Mus musculus. The data set is described as follows: Toxicity in BALB/c mdb mouse implanted with mouse 4T1 cells assessed as RBC level at 100 umol/kg, ip administered five times weekly measured at 29 day post cell innoculum (reference value: 8.6 +/- 0.9 10^6/uL). The class given is organism-based. Particulars: in vivo, 696 h.
Data set [16] deals with Mus musculus. Nature of the data set: Toxicity in BALB/c mdb mouse implanted with mouse 4T1 cells assessed as hemoglobin level at 100 umol/kg, ip administered five times weekly measured at 29 day post cell innoculum (reference value: 15.1 +/- 1.5 g/dl). The data set is classed as organism-based. The settings on record: in vivo, 696 h.
Data set [17] relates to Mus musculus. The data set is described as follows: Toxicity in BALB/c mdb mouse implanted with mouse 4T1 cells assessed as hematocrit at 100 umol/kg, ip administered five times weekly measured at 29 day post cell innoculum (reference value: 39.9 +/- 3.7 %). The data set is classed as organism-based. Particulars: in vivo, 696 h.
The test system of data set [18] is Mus musculus. The data set is described as follows: Toxicity in BALB/c mdb mouse implanted with mouse 4T1 cells assessed as serum PLT level at 100 umol/kg, ip administered five times weekly measured at 29 day post cell innoculum (reference value: 972 +/- 157 10^3/uL). The data set is classed as organism-based. Particulars: in vivo, 696 h.
In data set [19] the test system is Mus musculus. The data set is described as follows: Toxicity in BALB/c mdb mouse implanted with mouse 4T1 cells assessed as serum ALT level at 100 umol/kg, ip administered five times weekly measured at 29 day post cell innoculum (reference value: 23.8 +/- 2.2 U/L). The data set is classed as organism-based. Particulars: in vivo, 696 h.
The subject of data set [20] is Mus musculus. Nature of the data set: Toxicity in BALB/c mdb mouse implanted with mouse 4T1 cells assessed as serum AST level at 100 umol/kg, ip administered five times weekly measured at 29 day post cell innoculum (reference value: 136 +/- 10.3 U/L). The data set is classed as organism-based. Particulars: in vivo, 696 h.
Data set [21] has as its system Mus musculus. Nature of the data set: Toxicity in BALB/c mdb mouse implanted with mouse 4T1 cells assessed as serum creatinine level at 100 umol/kg, ip administered five times weekly measured at 29 day post cell innoculum (reference value: 9.3 +/- 1.2 umol/L). The data set is classed as organism-based. Particulars: in vivo, 696 h.
The test system of data set [22] is Mus musculus. Nature of the data set: Toxicity in BALB/c mdb mouse implanted with mouse 4T1 cells assessed as serum urea level at 100 umol/kg, ip administered five times weekly measured at 29 day post cell innoculum (reference value: 3.8 +/- […]). The class given is organism-based. Particulars: in vivo, 696 h.
The nature of data set [23]: Resistance index, ratio of IC50 for human MESSA/DX5 cells to IC50 for human MESSA cells. The data set is classed as functional.
The test system of data set [24] is MES-SA. The data set is described as follows: Cytotoxicity against human MESSA cells after 72 hrs by sulforhodamine B assay. The class given is functional, cell-based.
Data set [25] deals with MES-SA/Dx5. The data set is described as follows: Cytotoxicity against human MESSA/DX5 cells after 72 hrs by sulforhodamine B assay. The settings on record: MES-SA/Dx5, 72 h. The data set is classed as functional, cell-based.

Regarding `CC(C)COP(=O)(CCCCCCN=C=S)OCC(C)C`, the “Ratio IC50” value in data set [1] was determined as 10; in data set [2], 5; in [5], 3.4. For the same molecule, the results for the IC50 in [3] and in [4] were 2.7 µM and 9.2 µM, respectively. Further, the inhibition in vivo at 100 µmol/kg was 31% in data set [6] and 14.3% in data set [7]. Moreover, the Activity entry was “<= 10%” in data set [8]; 1.25 g in [9]; 0.127 g in data set [10]; 0.578 g in [11]; 0.199 g in [12]; 58 in data set [13]. Also, the Activity came out at 311.2 ×10³ /uL in data set [14]; 10.8 ×10⁶ /uL in data set [15]; 19.2 g/dL in data set [16]; 53% in data set [17]; 831 ×10³ /uL in [18]; 33.1 U/L in data set [19]. The Activity in data set [20] came out at 153.6 U/L; in data set [21], 8.2 µmol/L; in [22], 5.2 mmol/L.
As to `COc1cccc2c1C(=O)c1c(O)c3c(c(O)c1C2=O)C[C@@](O)(C(=O)CO)C[C@@H]3O[C@H]1C[C@H](N)[C@H](O)[C@H](C)O1` [DOXORUBICIN], the “Ratio IC50” value in data set [23] is 100. Also, the 50% inhibitory concentration (IC50) in data set [3] came to 0.3 µM; in [4], 12.2 µM; in data set [24], 0.1 µM; in data set [25] it was 13.9 µM.
